≈ marks a conversion by molar mass, not a printed value.
What was measured:
Assay type in all cases: cell-based
[1] = test system: Bladder cancer cell line UM-UC-3; experiment: Inhibitory activity on cancer cells, CellTiter-Glo viability, UM-UC-3; settings: Homo sapiens, UMUC3, 72 hours treatment
Outline: (§1)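 24 h attachment; HUVEC 2000, UM-UC-3/RM-1 3000, LNCaP 5000 cells/well. 8-pt 2.5× dilution from 100 μmol, 72 h, 37 °C/5% CO2. CellTiter-Glo; IC50 from curve fit; max = cells + DMSO vehicle, min = medium only.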

[2] = test system: Escherichia coli (carbapenem-resistant clinical isolate; ATCC25922); experiment: MIC by micro broth dilution (CLSI), Escherichia coli; settings: Escherichia coli; for MIC50 / MIC90: ATCC25922, Clinical strain; for MIC50: read-out: MIC50; for MIC90: read-out: MIC90; for MIC: Standard strain ATCC25922, read-out: MIC
Outline: (§2)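 MICs against clinical resistant and sensitive isolates and reference strains determined in CAMHB following CLSI microdilution, incubating 20 h at 35±2 °C in air. Final inoculum 10^5 CFU/mL; DMSO-dissolved compound tested over 0.06–128 mg/L; CLSI M100 (2019) criteria applied.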

[3] = test system: Prostate cancer cell line LNcaP; experiment: Inhibitory activity on cancer cells, CellTiter-Glo viability, LNcaP; settings: Homo sapiens, 72 hours treatment
Outline: as §1

[4] = test system: Staphylococcus aureus (methicillin-resistant and sensitive clinical isolates; ATCC29213); experiment: MIC by micro broth dilution (CLSI), Staphylococcus aureus; settings: for MIC50 / MIC90: Clinical strain; for MIC50: read-out: MIC50; for MIC90: read-out: MIC90; for MIC: Standard strain ATCC29213, read-out: MIC
Outline: as §2

[5] = test system: Endothelial cell line HUVEC; experiment: Inhibitory activity on cells, CellTiter-Glo viability, HUVEC; settings: Homo sapiens, 72 hours treatment
Outline: as §1

[6] = test system: Mouse prostate cancer cell line RM1; experiment: Inhibitory activity on cancer cells, CellTiter-Glo viability, RM1; settings: 72 hours treatment
Outline: as §1

[7] = test system: Acinetobacter baumannii (carbapenem-resistant clinical isolates; ATCC19606); experiment: MIC by micro broth dilution (CLSI), Acinetobacter baumannii; settings: Acinetobacter baumannii; for MIC50 / MIC90: ATCC19606, Clinical strain; for MIC50: read-out: MIC50; for MIC90: read-out: MIC90; for MIC: Standard strain ATCC19606, read-out: MIC
Outline: as §2

[8] = MIC by micro broth dilution (CLSI), Klebsiella pneumoniae; settings: for MIC50 / MIC90: Standard strain; for MIC: Standard strain ATCC43816
Source text: The test bacteria were one strain of clinically isolated carbapenem-resistant Escherichia coli, two strains of carbapenem-resistant Acinetobacter baumannii, two strains of methicillin-resistant Staphylococcus aureus, two strains of sensitive Staphylococcus aureus, and 7 strains of Klebsiella pneumoniae. Duplicate strains isolated from the same patient were eliminated. There were also […] quality control strains Escherichia coli ATCC25922, Acinetobacter baumannii ATCC19606, Staphylococcus aureus ATCC29213, Klebsiella pneumoniae ATCC BAA-1705, ATCC 43816, ATCC BAA-2472, ATCC-BAA-1898, ATCC-BAA-1899, NCTC 13440 and ATCC-BAA-2470. There were 24 strains in total.
According to the recommendations of relevant documents of the American Clinical and Laboratory Standards Institute (CLSI), the micro broth dilution method was used to determine the MIC of the compounds of the present invention against clinically isolated strains. • 3.1 Formulation of antibacterial drug: All the compounds of the present invention were dissolved in DMSO. The drug concentration range was 128 mg/L to 0.06 mg/L. • 3.2 Culture medium: The drug susceptibility test used cation adjusted Mueller-Hinton broth (CAMHB). • 3.3 Amount of inoculum: The test bacteria cultured overnight were adjusted to 0.5 McFarland turbidity by the direct colony suspension method, and diluted 100 folds, the final inoculum amount was 10^5 CFU/mL. • 3.4 Culture conditions: The test bacteria were cultured at 35±2° C. for 20 hours in air.
The drug susceptibility test results were interpretated by reference to CLSI 2019 M100 29th edition criteria.
The quality control strains of the drug susceptibility test were Escherichia coli ATCC 25922, Acinetobacter baumannii ATCC 19606, Staphylococcus aureus ATCC 29213, Klebsiella pneumoniae ATCC BAA-1705, ATCC 43816, ATCC BAA-2472, ATCC-BAA-1898, ATCC-BAA-1899, NCTC 13440 and ATCC-BAA-2470.
The results of drug susceptibility test were statistically analyzed by WHONET software (version 5.6).

## O=[N+]([O-])c1ccc2cccnc2c1O [Example 1, 7-Nitroquinolin-8-ol]
[1]
  IC50: 9.33 µM
[2]
  MIC50: 16 µg/mL (≈ 84.1 µM)
  MIC90: 16 µg/mL (≈ 84.1 µM)
  MIC: 8 µg/mL (≈ 42.1 µM)
[3]
  IC50: 10.9 µM
[4]
  MIC50: 4 µg/mL (≈ 21 µM)
  MIC90: 4 µg/mL (≈ 21 µM)
[5]
  IC50: 14.9 µM
[6]
  IC50: 8.13 µM
[7]
  MIC50: 4 µg/mL (≈ 21 µM)
  MIC90: 8 µg/mL (≈ 42.1 µM)
  MIC: 16 µg/mL (≈ 84.1 µM)
[8]
  MIC50: 16 µg/mL (≈ 84.1 µM)
  MIC90: 64 µg/mL (≈ 337 µM)
  MIC: 8 µg/mL (≈ 42.1 µM)

## Cc1cc2cccnc2c(O)c1[N+](=O)[O-] [Example 2, 6-Methyl-7-nitroquinolin-8-ol]
[1]
  IC50: 3.88 µM
[2]
  MIC50: 16 µg/mL (≈ 78.4 µM)
  MIC90: 64 µg/mL (≈ 313 µM)
  MIC: 8 µg/mL (≈ 39.2 µM)
[3]
  IC50: 5.97 µM
[4]
  MIC50: 4 µg/mL (≈ 19.6 µM)
  MIC90: 4 µg/mL (≈ 19.6 µM)
[5]
  IC50: 7.06 µM
[7]
  MIC50: 8 µg/mL (≈ 39.2 µM)
  MIC90: 8 µg/mL (≈ 39.2 µM)
[8]
  MIC50: 32 µg/mL (≈ 157 µM)
  MIC90: 64 µg/mL (≈ 313 µM)

## O=[N+]([O-])c1cc(I)c2cccnc2c1O [Example 3, 5-Iodo-7-nitroquinolin-8-ol]
[7]
  MIC50: > 64 µg/mL
  MIC90: > 64 µg/mL
[8]
  MIC50: > 64 µg/mL
  MIC90: > 64 µg/mL

## O=[N+]([O-])c1ccc2ccc(F)nc2c1O [Example 5, 2-Fluoro-7-nitroquinolin-8-ol]
[2]
  MIC50: 32 µg/mL (≈ 154 µM)
  MIC90: 32 µg/mL (≈ 154 µM)
[4]
  MIC50: 64 µg/mL (≈ 307 µM)
  MIC90: 64 µg/mL (≈ 307 µM)
[7]
  MIC50: > 64 µg/mL
  MIC90: > 64 µg/mL
[8]
  MIC50: > 64 µg/mL
  MIC90: > 64 µg/mL

## Cc1ccc2ccc([N+](=O)[O-])c(O)c2n1 [Example 6, 2-Methyl-7-nitroquinolin-8-ol]
[2]
  MIC50: 64 µg/mL (≈ 313 µM)
  MIC90: 64 µg/mL (≈ 313 µM)
[4]
  MIC50: 64 µg/mL (≈ 313 µM)
  MIC90: 64 µg/mL (≈ 313 µM)
[7]
  MIC50: > 64 µg/mL
  MIC90: > 64 µg/mL
[8]
  MIC50: > 64 µg/mL
  MIC90: > 64 µg/mL

## Cc1cnc2c(O)c([N+](=O)[O-])ccc2c1 [Example 8, 3-Methyl-7-nitroquinolin-8-ol]
[1]
  IC50: 3.77 µM
[2]
  MIC50: 4 µg/mL (≈ 19.6 µM)
  MIC90: 4 µg/mL (≈ 19.6 µM)
[3]
  IC50: 9.3 µM
[4]
  MIC50: 8 µg/mL (≈ 39.2 µM)
  MIC90: 8 µg/mL (≈ 39.2 µM)
[5]
  IC50: 5.7 µM
[6]
  IC50: 3.18 µM
[7]
  MIC50: 8 µg/mL (≈ 39.2 µM)
  MIC90: 16 µg/mL (≈ 78.4 µM)
[8]
  MIC50: 32 µg/mL (≈ 157 µM)
  MIC90: 32 µg/mL (≈ 157 µM)

## N#Cc1cc([N+](=O)[O-])c(O)c2ncccc12 [Example 9, 8-Hydroxy-7-nitroquinoline-5-carbonitrile]
[2]
  MIC50: > 64 µg/mL
  MIC90: > 64 µg/mL
[4]
  MIC50: > 64 µg/mL
  MIC90: > 64 µg/mL
[7]
  MIC50: > 64 µg/mL
  MIC90: > 64 µg/mL
[8]
  MIC50: 64 µg/mL (≈ 297 µM)
  MIC90: > 64 µg/mL

## Cc1ccnc2c(O)c([N+](=O)[O-])ccc12 [Example 10, 4-Methyl-7-nitroquinolin-8-ol]
[2]
  MIC50: 32 µg/mL (≈ 157 µM)
  MIC90: 32 µg/mL (≈ 157 µM)
[4]
  MIC50: 16 µg/mL (≈ 78.4 µM)
  MIC90: 16 µg/mL (≈ 78.4 µM)
[7]
  MIC50: 32 µg/mL (≈ 157 µM)
  MIC90: 64 µg/mL (≈ 313 µM)
[8]
  MIC50: > 64 µg/mL
  MIC90: > 64 µg/mL

## O=[N+]([O-])c1ccc2c(C3CC3)ccnc2c1O [Example 11, 4-Cyclopropyl-7-nitroquinolin-8-ol]
[1]
  IC50: 2.71 µM
[2]
  MIC50: 8 µg/mL (≈ 34.7 µM)
  MIC90: 128 µg/mL (≈ 556 µM)
  MIC: > 128 µg/mL
[3]
  IC50: 1.67 µM
[4]
  MIC50: 8 µg/mL (≈ 34.7 µM)
  MIC90: 8 µg/mL (≈ 34.7 µM)
  MIC: 4 µg/mL (≈ 17.4 µM)
[5]
  IC50: 2.97 µM
[6]
  IC50: 3.42 µM
[7]
  MIC50: 16 µg/mL (≈ 69.5 µM)
  MIC90: 128 µg/mL (≈ 556 µM)
  MIC: > 128 µg/mL
[8]
  MIC50: 64 µg/mL (≈ 278 µM)
  MIC90: 64 µg/mL (≈ 278 µM)

## O=[N+]([O-])c1ccc2c(Cl)c(C3CC3)cnc2c1O [Example 74, 4-chloro-3-cyclopropyl-7-nitroquinolin-8-ol]
[1]
  IC50: 1.57 µM
[2]
  MIC50: 128 µg/mL (≈ 484 µM)
  MIC90: 128 µg/mL (≈ 484 µM)
  MIC: > 128 µg/mL
[3]
  IC50: 0.53 µM
[4]
  MIC50: 0.25 µg/mL (≈ 0.945 µM)
  MIC90: 0.5 µg/mL (≈ 1.89 µM)
  MIC: 0.5 µg/mL (≈ 1.89 µM)
[5]
  IC50: 1.28 µM
[6]
  IC50: 7.64 µM
[7]
  MIC50: 128 µg/mL (≈ 484 µM)
  MIC90: 128 µg/mL (≈ 484 µM)
  MIC: 4 µg/mL (≈ 15.1 µM)

## N#Cc1ccnc2c(O)c([N+](=O)[O-])ccc12 [Example 76, 8-hydroxy-7-nitroquinoline-4-carbonitrile]
[1]
  IC50: 38.8 µM
[2]
  MIC50: 32 µg/mL (≈ 149 µM)
  MIC90: 64 µg/mL (≈ 297 µM)
  MIC: 32 µg/mL (≈ 149 µM)
[3]
  IC50: 15.2 µM
[4]
  MIC50: 32 µg/mL (≈ 149 µM)
  MIC90: 32 µg/mL (≈ 149 µM)
  MIC: 32 µg/mL (≈ 149 µM)
[5]
  IC50: 18 µM
[6]
  IC50: 13.3 µM
[7]
  MIC50: 32 µg/mL (≈ 149 µM)
  MIC90: 64 µg/mL (≈ 297 µM)
  MIC: 32 µg/mL (≈ 149 µM)

## O=[N+]([O-])c1ccc(O)c2ncccc12 [Nitroxoline, nitroxoline, reference compound]
[1]
  IC50: 9.2 µM
[2]
  MIC50: 8 µg/mL (≈ 42.1 µM)
  MIC90: 16 µg/mL (≈ 84.1 µM)
  MIC: 4 µg/mL (≈ 21 µM)
[3]
  IC50: 5.1 µM
[4]
  MIC50: 4 µg/mL (≈ 21 µM)
  MIC90: 4 µg/mL (≈ 21 µM)
  MIC: 4 µg/mL (≈ 21 µM)
[5]
  IC50: 4.5 µM
[6]
  IC50: 4.3 µM
[7]
  MIC50: 4 µg/mL (≈ 21 µM)
  MIC90: 4 µg/mL (≈ 21 µM)
  MIC: 2 µg/mL (≈ 10.5 µM)
[8]
  MIC50: 8 µg/mL (≈ 42.1 µM)
  MIC90: 16 µg/mL (≈ 84.1 µM)
  MIC: 4 µg/mL (≈ 21 µM)

— patent US20240246916A1, “7-NITRO-8-HYDROXYQUINOLINE DERIVATIVES, PREPARATION METHOD THEREFORE AND MEDICAL USE THEREOF” (Jiangsu Yahong Meditech Co., Ltd., priority 2021, published 2024)
